Measurements published in patent US20210015764A1, “METHODS OF REDUCING INFLAMMATION OF THE DIGESTIVE SYSTEM WITH INHIBITORS OF HIF-2- ALPHA” (Peloton Therapeutics Inc., priority 2018, published 2021).
Where two headings read alike, the source gives them in different places.

Tests used:
[1] = target: T1, HIF-2α HIS TAG-PASB Domain (Homo sapiens, UniProt Q99814); assay: HIF-2α Scintillation Proximity Assay (SPA); format: binding
T1 construct: 100 nM HIF-2α HIS TAG-PASB Domain
Protocol: The total assay volume was about 100 μL in the following configuration: 2 μL compound in 100% DMSO, 88 μL buffer with protein and probe and 10 μL of SPA beads. […] The percent inhibition was determined and IC50 values were calculated using the Dotmatics system based on the following equation: % inhibition=[(high control−sample)/(high control−low control)]×100.

786-O-Hif-Luc cells = assay: Luciferase assay (HIF responsive element reporter); settings: 24 h
Protocol: A pool of infected cells were then selected against 2 g/mL of puromycin (P8833, Sigma) for 10 days followed by limited dilution to select single clones.
Each concentration was tested in triplicate. After about 24 hours, luciferase activity was determined using ONE-Glo Luciferase Assay Reagent (E6110, Promega) following the manufacturer's recommended procedure. EC50 were calculated using Dotmatics software.

786-O cells = assay: VEGF ELISA assay; format: cell-based; settings: Homo sapiens, 786-0, VEGF in culture medium
Protocol: Each concentration was plated in duplicate. About 20 hours later, medium was removed by suction and each well was supplied with 180 μL of growth medium. About 20 μl freshly-made 10× compound stocks were added to each well. […] The EC50 was calculated by GraphPad Prism using the dose-response-inhibition (four parameter) equation. The cell-seeded plate was then subjected to CellTiter-Glo luminescence cell viability assay (Promega) by adding 50 μL of Celltiter Glo reagent into each well and shaking the plate for 8 minutes at 550 rpm (Thermomixer R, Eppendorf) then the luminescence signal immediately read in a plate reader (3 second delay, 0.5 second/well integration time, Synergy 2 multi Detection Microplate reader).

DSS induced colitis = assay: DSS-induced model of colitis, two DSS cycles (Example 12); format: in vivo; settings: female C57BI6 mice, Compound 231 60 mg/kg BID, filgotinib 30 mg/kg QD; for colon length: day 27
Protocol: 6-8 week old female C57BI6 mice were tagged and weighed, then treated with 2% dextran sulfate sodium (DSS) for 6 days. A 2 week recovery phase of regular water was completed over days 7-19. […] Mice were monitored daily and scored for body weight loss, stool consistency/diarrhea, and blood in the feces/rectum. The disease activity index was calculated according to Table 4. The second DSS cycle and treatment regimen continued for 7 days, and then on day 27 the animals were sacrificed. Colons were harvested and the texture, appearance and length of the colons assessed. Colon tissues were prepared for H&E histology, immune gene expression analysis, and immune phenotyping of immune cell infiltrate by flow cytometry. [table]

[2] = probe displacement from HIF-2α PAS-B domain, read-out: Scintillation Proximity Assay IC50
[3] = read-out: Mean Luciferase EC50 (nM)
[4] = read-out: Mean Luciferase EC50 (nM), 786-O-Hif-Luc cells, about 24 hours

T1 sequence (Q99814 240-350 limits assumed): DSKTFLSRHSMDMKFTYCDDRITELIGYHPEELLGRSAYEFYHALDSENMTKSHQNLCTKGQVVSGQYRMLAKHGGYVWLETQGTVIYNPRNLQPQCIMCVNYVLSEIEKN

Compound	EC50 (786-O-Hif-Luc cells; [3])	further results
O=C1CCC(Oc2ccc(S(=O)(=O)C(F)(F)F)c3c2CC(F)(F)[C@H]3O)CN1 (stereo partly shown) [Compound 719]		IC50 [1, 2]: > 1000 nM
CS(=O)(=O)c1ccc(Oc2cc(F)cc(C#N)c2)c2c1[C@H](O)[C@H](F)[C@@H]2F [Compound 289, 3-[(1S,2S,3R)-2,3-difluoro-1-hydroxy-7-methylsulfonyl-indan-4-yl]oxy-5-fluoro-benzonitrile]	< 50 nM	
N#Cc1cc(F)cc(Oc2ccc(S(=O)(=O)C(F)F)c3c2CCC3O)c1 (stereo not shown) [Compound 78]		EC50 (786-O cells): 250 to 1000 nM
N#Cc1cc(F)cc(Oc2ccc3c(c2Br)C(N)C(F)(F)S3(=O)=O)c1 (stereo not shown) [Compound 376]		EC50 (786-O-Hif-Luc cells; [4]): > 1000 nM; IC50 [1, 2]: < 50 nM
O=C(Nc1nc2cccc(-c3ccc(CN4CCS(=O)(=O)CC4)cc3)n2n1)C1CC1 [filgotinib]		colon length (DSS induced colitis): This effect was reversed; disease activity index score (DSS induced colitis; second DSS cycle ([…] DSS, 7 days), vehicle group 6-7): slight decrease in the disease activity index, but only in the later stage of the disease progression
CNS(=O)(=O)c1ccc(Oc2cc(F)cc(F)c2)c2c1[C@H](O)C(F)(F)C2 [Compound 251]	50 to 249 nM	
[2H][C@]1(O)c2c(S(C)(=O)=O)ccc(Oc3cc(F)cc(C#N)c3)c2CC1(F)F [Compound 247]	< 50 nM	
N#Cc1cc(F)cc(Oc2ccc(S(=O)(=O)C(F)(F)F)c3c2CCC3O)c1 (stereo not shown) [Compound 258]	> 1000 nM	
N#Cc1cc(F)cc(Oc2ccc(S(N)(=O)=O)c3c2[C@@H](F)C(F)(F)[C@H]3O)c1 [Compound 338]	< 50 nM	
O=S(=O)(c1ccc(OC2CC(O)C2)c2c1[C@H](O)C(F)(F)C2)C(F)(F)F (stereo partly shown) [Compound 644]		EC50 (786-O-Hif-Luc cells; [4]): 250 to 1000 nM
O=S(=O)(c1ccc(Oc2cc(F)cc(Cl)c2)c(Cl)c1CO)C(F)F [Compound 41]	250 to 1000 nM	EC50 (786-O cells): 250 to 1000 nM
CS(=O)(=O)c1ccc(Oc2cc(F)cc(C#N)c2)c2c1C(O)C(F)(F)C2 (stereo not shown) [Compound 223]	50 to 249 nM	
O=S(=O)(c1ccc(Oc2cc(F)cc(Cl)c2)c2c1[C@H](O)C[C@@H]2CO)C(F)(F)F [Compound 281]		IC50 [1, 2]: 250 to 1000 nM
COCc1c(S(=O)(=O)C(F)F)ccc(Oc2cc(F)cc(Cl)c2)c1Cl [Compound 44]		IC50 [1]: > 1000 nM
N#Cc1cc(F)cc(Oc2ccc(S(=O)(=O)C(F)(F)F)c3c2C[C@@H](F)[C@H]3O)c1 [Compound 227]		EC50 (786-O-Hif-Luc cells; [4]): < 50 nM
O=S(=O)(c1ccc(Oc2cc(F)cc(Cl)c2)c2c1C(O)CC2)C(F)F (stereo not shown) [Compound 17]		EC50 (786-O cells): 50 to 249 nM
C[C@H]1C[C@@H](O)c2c(S(=O)(=O)C(F)F)ccc(Oc3cc(F)cc(Cl)c3)c21 [Compound 7a]	250 to 1000 nM	
O=S1(=O)c2ccc(OC3CCOCC3)c(C(F)F)c2C(O)C1(F)F (stereo not shown) [Compound 400]		EC50 (786-O-Hif-Luc cells; [4]): > 1000 nM; IC50 [1, 2]: > 1000 nM
CC(C)(C)OC(=O)NC1CC(Oc2ccc(S(=O)(=O)C(F)(F)F)c3c2CC(F)(F)[C@H]3O)C1 (stereo partly shown) [Compound 722]		EC50 (786-O-Hif-Luc cells; [4]): > 1000 nM
CCCNc1ccc(S(=O)(=O)C(F)F)c2c1CC(F)(F)[C@H]2O [Compound 532]		EC50 (786-O-Hif-Luc cells; [4]): 250 to 1000 nM; IC50 [1, 2]: < 50 nM
N#Cc1cc(Cl)cc(Oc2ccc(S(=O)(=O)CF)c3c2CC(F)(F)[C@H]3O)c1 [Compound 167]	< 50 nM	
CS(=O)(=O)c1ccc(Oc2cc(F)cc(C#N)c2)c2c1[C@H](N)C(F)(F)C2 [Compound 165]	50 to 249 nM	
N#Cc1cc(F)cc(-c2cnc(C(F)(F)F)c3c2C[C@@H](F)[C@H]3O)c1 [Compound 471]		IC50 [1, 2]: 250 to 1000 nM

Compound	EC50 (786-O-Hif-Luc cells; [3])	further results
CNS(=O)(=O)c1ccc(Oc2cc(F)cc(C#N)c2)c2c1[C@H](O)C(F)(F)C2 [Compound 254]	50 to 249 nM	
O=S(=O)(c1ccc(OC2=CC=CN3CC=NC23)c2c1C(O)C(F)(F)C2)C(F)(F)F (stereo not shown) [Compound 246]		IC50 [1, 2]: > 1000 nM
N#Cc1cccc(Oc2ccc(S(=O)(=O)C(F)F)c3c2CC[C@H]3O)c1 [Compound 156]	250 to 1000 nM	
CS(=O)(=O)c1ccc(Oc2cc(F)cc(C#N)c2)c2c1C(O)C(F)C2 (stereo not shown) [Compound 232]	< 50 nM	
O=S(=O)(c1ccc(OC2CCOCC2)c2c1[C@@H](O)C(F)(F)C2)C(F)F [Compound 782]		EC50 (786-O-Hif-Luc cells; [4]): 50 to 249 nM; IC50 [1, 2]: 50 to 249 nM
O=S(=O)(c1ccc(Oc2cc(F)cc(Cl)c2)c2c1[C@H](O)CC2)C(F)F [Compound 1]		EC50 (786-O cells): 250 to 1000 nM
CS(=O)(=O)c1ccc(Oc2cc(F)cc(C#N)c2)c2c1[C@@H](O)C(F)(F)C2 [Compound 226]	> 1000 nM	
N#Cc1ccc(Oc2cc(F)cc(F)c2)c2c1[C@H](O)C(F)(F)C2 [Compound 67]		EC50 (786-O cells): 50 to 249 nM
CS(=O)(=O)c1ccc(Oc2cc(F)cc(C#N)c2)c2c1[C@H](O)C(F)(F)C2 [Compound 163, (S)-3-((2,2-difluoro-1-hydroxy-7-(methylsulfonyl)-2,3-dihydro-1H-inden-4-yl)oxy)-5-fluorobenzonitrile]	< 50 nM	
CS(=O)(=O)c1ccc(Oc2cc(F)cc(C#N)c2)c2c1[C@H](O)[C@@H](F)C2 [Compound 271]	250 to 1000 nM	
CS(=O)(=O)c1ccc(Oc2cc(Cl)cc(C#N)c2)c2c1[C@H](O)C(F)(F)C2 [Compound 234]	< 50 nM	EC50 (786-O cells): 50 to 249 nM
N#Cc1cc(F)cc(Oc2ccc(S(N)(=O)=O)c3c2CC(F)(F)[C@H]3O)c1 [Compound 252]	50 to 249 nM	
CS(=O)(=O)c1ccc(Oc2cc(F)cc(C#N)c2)c2c1[C@H](O)[C@H](F)C2 [Compound 231]	< 50 nM	colon length (DSS induced colitis): greatest improvement in colon length
O=S(=O)(c1ccc(Oc2cc(F)cc(Cl)c2)c(C(F)F)c1)C(F)(F)F [Compound 124]	250 to 1000 nM	EC50 (786-O cells): 250 to 1000 nM
NS(=O)(=O)c1ccc(Oc2cc(F)cc(F)c2)c2c1[C@H](O)C(F)(F)C2 [Compound 256]	< 50 nM	
N#Cc1cc(F)cc(Oc2ccc(S(=O)(=O)C(F)(F)F)c3c2CC(F)(F)[C@H]3N)c1 [Compound 290]	50 to 249 nM	
N#Cc1cc(F)cc(Oc2ccc(S(=O)(=O)C(F)(F)F)c3c2CC[C@H]3O)c1 [Compound 57]	50 to 249 nM	
CCS(=O)(=O)c1ccc(Oc2cc(F)cc(C#N)c2)c2c1[C@H](O)C(F)(F)C2 [Compound 206]	50 to 249 nM	
N#Cc1cc(F)cc(Oc2ccc(S(N)(=O)=O)c3c2[C@H](F)C(F)(F)[C@H]3O)c1 [Compound 339]	250 to 1000 nM	
N#Cc1cncc(Oc2ccc(S(=O)(=O)C(F)(F)F)c3c2CC(F)(F)[C@H]3O)c1 [Compound 235]	< 50 nM	
N#Cc1cc(F)cc(Oc2ccc(S(=O)(=O)C(F)F)c3c2CC[C@H]3O)c1 [Compound 155]	50 to 249 nM	EC50 (786-O cells): 50 to 249 nM
[2H]C([2H])([2H])S(=O)(=O)c1ccc(Oc2cc(F)cc(C#N)c2)c2c1[C@]([2H])(O)C(F)(F)C2 [Compound 229]	< 50 nM	
